Test results as given in patent US20240300927A1, “AMIDES AS CBL-B INHIBITORS” (Genentech, Inc., priority 2021, published 2024).

How the values were obtained:
[1] = target: c-Cbl (Homo sapiens (Human), UniProt P22681); test: C-cbl LCK Ub TR-FRET assay (C-cbl Lck HTRF); format: biochemical
Outline: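 Biotin-Cbl-b (16 nM) or biotin-c-Cbl (12 nM) at 2× preincubated with compound 60 min, then His-LCK (120 nM), 1 mM ATP and MgCl2 (2× mix) added for 90 min at RT. Buffer: HEPES pH 7.0, DTT. UBE2D2–HA-ubiquitin transfer read by TR-FRET (665/615 nm); IC50 versus no-LCK and DMSO controls, 10-point dilutions.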

[2] = system: PBMCs; test: PBMC IL-2 assay; format: cell-based; details: read-out: PBMC IL-2 Cell EC50
Procedure: Immune response to compounds described herein can be assessed via a PBMC IL-2 assay, conducted according to the following protocol. PBMCs (#A19K379053, A19K261022; TPCS) are thawed into complete medium: 1640 medium (#2085568; Gibco), 10% FBS (#SH30084.03; HyClone), and 1× pen/strep. Compounds are 3-fold serially diluted in DMSO in a 384-well polypropylene plate (#P-05525-BC; Labcyte) using the Tecan EVO to generate a source plate with 10 concentrations of each compound, top concentration=4 mM. Compounds are dispensed into a 96-well plate (#6005680; PerkinElmer) using a Labcyte Echo; final dispensed volume of each control and compound is 1000 nL (final DMSO=0.5%). After recovery overnight, cells are seeded at 2×10^5 cells/well into 96-well plates containing compounds and incubated at 37° C., 5% CO2 for 30 min. Cells are stimulated by adding 20 μL/well 1/10 TransAct (#130-111-160; Miltenyi) diluted in complete medium, placed on a shaker for 2 min at 600 rpm, and incubated for 24 h at 37° C., 5% CO2. Plates are centrifuged at 1200 rpm for 5 min and 120 μL cell supernatant collected. Supernatants are diluted 10-fold and IL-2 concentrations of each sample are determined using the IL-2 MSD kit (#K151AHB-4; MSD) per the manufacturer's instructions.

[3] = system: hWB; test: IL-2 hWB assay; format: cell-based; details: Homo sapiens
[4] = In vitro plasma protein binding, human; format: in vitro ADME; details: pooled human plasma, read-out: PPB % (H/R/M) (converted)
Procedure: (§1) In vitro plasma protein binding (n=2) was determined in pooled mouse, rat, and human plasma (Bioreclamation, Inc., Hicksville, NY) by equilibrium dialysis using a Rapid Equilibrium Dialysis (RED) device (Pierce Biotechnology/Thermo Fisher Scientific; Rockford, IL) with a molecular weight cut-off of 8000 Daltons. Test compounds were added to plasma. Plasma samples were equilibriated with phosphate-buffered saline at 37° C. for 4 hours. Compound concentrations in post-dialysis plasma and buffer samples were measured by LC-MS/MS. The percent unbound fraction in plasma for each compound was calculated by dividing the compound concentration in the post-dialysis buffer by that measured in the post-dialysis plasma and multiplying by 100%.

[5] = In vitro plasma protein binding, mouse; format: in vitro ADME; details: pooled mouse plasma, read-out: PPB % (H/R/M) (converted)
Procedure: as §1

[6] = Liver microsomes metabolic stability, human; format: in vitro ADME
[7] = Liver microsomes metabolic stability, rat; format: in vitro ADME
Procedure: (§2) Metabolic stability of test compounds was evaluated in pooled rat, mouse, dog, and cynomolgus monkey liver microsomes (BD Biosciences, San Jose, CA). The incubation conditions were as follows: 1 μM of the tested compound, 1 mM NADPH, 0.5 mg/mL microsomal protein in 0.1 M potassium phosphate buffer (pH 7.4). Following a 5-minute pre-incubation period, the enzymatic reactions were initiated by the addition of NADPH and test compound to the microsomes diluted in phosphate buffered saline. The mixtures were incubated at 37° C. for 0, 20, 40, and 60 min.
(§3) Compound concentrations were assessed by LC-MS/MS. Intrinsic clearance based upon microsomal stability data was determined using a substrate depletion method and scaled to hepatic clearance using the well-stirred model (Obach, R. S.; Baxter, J. G.; Liston, T. E.; Silber, B. M.; Jones, B. C.; MacIntyre, F.; Rance, D. J.; Wastall, P., “The Prediction of Human Pharmacokinetic Parameters from Preclinical and in vitro Metabolism Data”, J. Pharmacol. Exp. Ther., (1997), 283 (1), 46-58).

[8] = Liver microsomes metabolic stability, mouse; format: in vitro ADME
Procedure: as §2, §3

[9] = Liver microsomes metabolic stability, dog; format: in vitro ADME
Procedure: as §2, §3

[10] = Liver microsomes metabolic stability, cynomolgus monkey; format: in vitro ADME
Procedure: as §2, §3

[11] = Mouse PK; format: in vivo
[12] = LogD; format: physicochemical

Chain of c-Cbl (P22681 47-435): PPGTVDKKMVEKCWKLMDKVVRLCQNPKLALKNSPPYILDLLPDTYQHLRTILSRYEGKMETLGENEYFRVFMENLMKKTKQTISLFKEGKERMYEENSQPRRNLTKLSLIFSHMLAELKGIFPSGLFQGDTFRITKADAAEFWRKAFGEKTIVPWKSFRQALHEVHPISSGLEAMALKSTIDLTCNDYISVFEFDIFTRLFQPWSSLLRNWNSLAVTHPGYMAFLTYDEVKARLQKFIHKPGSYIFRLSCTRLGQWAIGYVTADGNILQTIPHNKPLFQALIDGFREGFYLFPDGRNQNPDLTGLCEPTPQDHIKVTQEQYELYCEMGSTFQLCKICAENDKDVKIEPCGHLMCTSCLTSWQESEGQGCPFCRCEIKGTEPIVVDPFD

IC50 [1]: 5 nM
EC50 [3]: 250 nM
fraction unbound at 4 h [4]: 0.14
fraction unbound at 4 h [5]: 0.06
LM (H/R/M/D/C) [6]: 18
LM (H/R/M/D/C) [7]: 38
LM (H/R/M/D/C) [8]: 60
LM (H/R/M/D/C) [9]: 29
LM (H/R/M/D/C) [10]: 40
Mouse PK unbound CLp [11]: (unbound CLp 683)
clearance ([11]; plasma, intravenous, read-out: Mouse PK CLp): 41 mL/min/kg
bioavailability ([11]; plasma, oral, read-out: Mouse PK F %): 3.4%
logD [12]: 2.2
Compound: CC(C)[C@H]1CN(C)CCN1Cc1cc(C(=O)Nc2cccc(C3(Cc4nncn4C)CC(F)(F)C3)c2)nc(C2CC2)c1 [Compound 224, (S)-6-cyclopropyl-N-(3-(3,3-difluoro-1-((4-methyl-4H-1,2,4-triazol-3-yl)methyl)cyclobutyl)phenyl)-4-((2-isopropyl-4-methylpiperazin-1-yl)methyl)picolinamide]
EC50 [2]: 32 nM
